Assay results published in ChEMBL document CHEMBL4387741, “Optimization of novel reversible Bruton's tyrosine kinase inhibitors identified using Tethering-fragment-based screens” (Bioorg Med Chem, 2019).
Values after ≈ are worked out from the molar mass of the structure shown.

Experiments:
[1] = system: Mast/stem cell growth factor receptor Kit (Homo sapiens), P10721 [V559D]; experiment: Inhibition of human partial length KIT V559D mutant (Y545 to D952 residues) expressed in bacterial expression system at 1 uM by Kinomescan method relative to control
[2] = Plasma clearance in Sprague-Dawley rat at 1 mg/kg, iv; format: ADME, organism-based
[3] = Apparent permeability from apical to basolateral side in human Caco2 cells at 5 uM after 120 mins by LC-MS/MS analysis; format: ADME, cell-based; details: Caco-2
[4] = target: Serine/threonine-protein kinase 32C (Homo sapiens) (UniProt Q86UX6); experiment: Inhibition of wild-type human partial length YANK3 (M68 to G486 residues) expressed in bacterial expression system at 1 uM by Kinomescan method relative to control
[5] = target: Serine/threonine-protein kinase TAO1 (Homo sapiens) (UniProt Q7L7X3); experiment: Inhibition of wild-type human partial length TAOK1 (M1 to A320 residues) expressed in mammalian expression system at 1 uM by Kinomescan method relative to control
[6] = target: Dual specificity tyrosine-phosphorylation-regulated kinase 2 (Homo sapiens) (UniProt Q92630); experiment: Inhibition of wild-type human full length DYRK2 (M1 to S528 residues) expressed in mammalian expression system at 1 uM by Kinomescan method relative to control
[7] = target: Cyclin-dependent kinase 16 (Homo sapiens) (UniProt Q00536); experiment: Inhibition of wild-type human partial length PCTK1 (G160 to A474 residues) expressed in mammalian expression system at 1 uM by Kinomescan method relative to control
[8] = target: Mitogen-activated protein kinase 15 (Homo sapiens) (UniProt Q8TD08); experiment: Inhibition of wild-type human partial length ERK8 (M1 to P437 residues) expressed in bacterial expression system at 1 uM by Kinomescan method relative to control
Mitogen-activated protein kinase 15 (Homo sapiens), sequence (Q8TD08 whole entry, the tested form may be a part): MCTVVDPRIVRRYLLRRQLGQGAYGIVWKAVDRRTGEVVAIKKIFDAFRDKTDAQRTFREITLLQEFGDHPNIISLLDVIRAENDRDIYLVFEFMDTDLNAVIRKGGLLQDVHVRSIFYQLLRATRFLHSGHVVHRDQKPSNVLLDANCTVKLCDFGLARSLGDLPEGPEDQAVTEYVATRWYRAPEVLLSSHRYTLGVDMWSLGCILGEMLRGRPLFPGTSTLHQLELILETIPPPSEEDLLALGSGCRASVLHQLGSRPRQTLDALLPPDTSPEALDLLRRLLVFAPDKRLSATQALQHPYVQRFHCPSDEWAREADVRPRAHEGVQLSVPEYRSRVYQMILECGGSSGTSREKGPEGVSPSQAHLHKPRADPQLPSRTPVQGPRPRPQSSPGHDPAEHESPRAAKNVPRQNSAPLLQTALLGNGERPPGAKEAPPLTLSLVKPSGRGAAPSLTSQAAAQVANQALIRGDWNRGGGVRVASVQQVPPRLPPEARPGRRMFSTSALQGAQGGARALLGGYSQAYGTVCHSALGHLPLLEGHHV

[9] = Aqueous kinetic solubility of the compound at pH 6.8 by shake flask assay; format: physicochemical; details: read-out: Kinetic_solubility
[10] = target: Phosphatidylinositol 4,5-bisphosphate 3-kinase catalytic subunit delta isoform (Homo sapiens) (UniProt O00329); experiment: Inhibition of wild-type human partial length PIK3CD (R108 to Q1044 residues) expressed in mammalian expression system at 1 uM by Kinomescan method relative to control
[11] = target: Serine/threonine-protein kinase PAK 6 (Homo sapiens) (UniProt Q9NQU5); experiment: Inhibition of wild-type human partial length PAK6 (N298 to C681 residues) expressed in bacterial expression system at 1 uM by Kinomescan method relative to control
Serine/threonine-protein kinase PAK 6 (Homo sapiens), sequence (Q9NQU5 whole entry, looked up, the tested form may be a part): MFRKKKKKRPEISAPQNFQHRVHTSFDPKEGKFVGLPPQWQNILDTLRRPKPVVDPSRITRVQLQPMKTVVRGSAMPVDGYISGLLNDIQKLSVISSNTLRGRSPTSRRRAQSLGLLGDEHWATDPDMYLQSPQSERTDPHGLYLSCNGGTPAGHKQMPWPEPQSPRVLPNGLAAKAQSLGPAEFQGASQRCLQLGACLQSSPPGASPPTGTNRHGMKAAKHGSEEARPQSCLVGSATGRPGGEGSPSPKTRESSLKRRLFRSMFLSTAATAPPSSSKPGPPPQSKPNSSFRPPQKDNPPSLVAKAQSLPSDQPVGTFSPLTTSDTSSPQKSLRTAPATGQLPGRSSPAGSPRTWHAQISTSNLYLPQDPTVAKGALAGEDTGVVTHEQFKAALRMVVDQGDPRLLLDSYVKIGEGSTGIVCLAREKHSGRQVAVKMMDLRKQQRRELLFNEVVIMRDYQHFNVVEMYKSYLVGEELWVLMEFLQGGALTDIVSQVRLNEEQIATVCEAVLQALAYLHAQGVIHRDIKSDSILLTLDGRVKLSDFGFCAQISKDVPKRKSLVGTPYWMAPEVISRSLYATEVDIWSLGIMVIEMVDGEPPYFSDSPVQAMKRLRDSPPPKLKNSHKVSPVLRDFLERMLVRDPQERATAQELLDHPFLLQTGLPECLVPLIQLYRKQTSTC

[12] = target: Mitogen-activated protein kinase kinase kinase 15 (Homo sapiens) (UniProt Q6ZN16); experiment: Inhibition of wild-type human partial length MAP3K15 (T625 to L932 residues) expressed in mammalian expression system at 1 uM by Kinomescan method relative to control
[13] = target: Mitogen-activated protein kinase kinase kinase 7 (Homo sapiens) (UniProt O43318); experiment: Inhibition of wild-type human partial length TAK1 (M1 to Q303 residues) expressed in mammalian expression system at 1 uM by Kinomescan method relative to control
Mitogen-activated protein kinase kinase kinase 7 (Homo sapiens), sequence (O43318 whole entry, the tested form may be a part, canonical isoform): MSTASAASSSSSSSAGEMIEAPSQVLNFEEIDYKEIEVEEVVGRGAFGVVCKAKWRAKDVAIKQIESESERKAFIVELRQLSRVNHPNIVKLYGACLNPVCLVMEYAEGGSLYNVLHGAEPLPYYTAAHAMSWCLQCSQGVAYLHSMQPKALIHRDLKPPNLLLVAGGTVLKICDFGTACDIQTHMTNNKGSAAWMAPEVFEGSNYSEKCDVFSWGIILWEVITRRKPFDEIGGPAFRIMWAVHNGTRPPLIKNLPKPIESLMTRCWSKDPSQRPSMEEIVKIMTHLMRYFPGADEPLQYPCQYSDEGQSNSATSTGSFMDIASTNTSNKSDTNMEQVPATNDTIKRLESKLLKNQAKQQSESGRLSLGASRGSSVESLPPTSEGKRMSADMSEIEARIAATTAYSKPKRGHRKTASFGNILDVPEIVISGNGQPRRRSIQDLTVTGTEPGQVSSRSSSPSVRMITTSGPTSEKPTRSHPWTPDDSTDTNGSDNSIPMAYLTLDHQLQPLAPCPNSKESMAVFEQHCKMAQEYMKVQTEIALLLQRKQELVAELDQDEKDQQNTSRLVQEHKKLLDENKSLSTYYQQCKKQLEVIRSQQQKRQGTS

[14] = system: Phosphatidylinositol 4,5-bisphosphate 3-kinase catalytic subunit alpha isoform (Homo sapiens), P42336 [I800L]; experiment: Inhibition of human partial length PIK3CA I800L mutant (R108 to N1068 residues) expressed in mammalian expression system at 1 uM by Kinomescan method relative to control
Phosphatidylinositol 4,5-bisphosphate 3-kinase catalytic subunit alpha isoform (Homo sapiens), P42336 [I800L], sequence (P42336 whole entry I800L, the tested form may be a part, canonical isoform): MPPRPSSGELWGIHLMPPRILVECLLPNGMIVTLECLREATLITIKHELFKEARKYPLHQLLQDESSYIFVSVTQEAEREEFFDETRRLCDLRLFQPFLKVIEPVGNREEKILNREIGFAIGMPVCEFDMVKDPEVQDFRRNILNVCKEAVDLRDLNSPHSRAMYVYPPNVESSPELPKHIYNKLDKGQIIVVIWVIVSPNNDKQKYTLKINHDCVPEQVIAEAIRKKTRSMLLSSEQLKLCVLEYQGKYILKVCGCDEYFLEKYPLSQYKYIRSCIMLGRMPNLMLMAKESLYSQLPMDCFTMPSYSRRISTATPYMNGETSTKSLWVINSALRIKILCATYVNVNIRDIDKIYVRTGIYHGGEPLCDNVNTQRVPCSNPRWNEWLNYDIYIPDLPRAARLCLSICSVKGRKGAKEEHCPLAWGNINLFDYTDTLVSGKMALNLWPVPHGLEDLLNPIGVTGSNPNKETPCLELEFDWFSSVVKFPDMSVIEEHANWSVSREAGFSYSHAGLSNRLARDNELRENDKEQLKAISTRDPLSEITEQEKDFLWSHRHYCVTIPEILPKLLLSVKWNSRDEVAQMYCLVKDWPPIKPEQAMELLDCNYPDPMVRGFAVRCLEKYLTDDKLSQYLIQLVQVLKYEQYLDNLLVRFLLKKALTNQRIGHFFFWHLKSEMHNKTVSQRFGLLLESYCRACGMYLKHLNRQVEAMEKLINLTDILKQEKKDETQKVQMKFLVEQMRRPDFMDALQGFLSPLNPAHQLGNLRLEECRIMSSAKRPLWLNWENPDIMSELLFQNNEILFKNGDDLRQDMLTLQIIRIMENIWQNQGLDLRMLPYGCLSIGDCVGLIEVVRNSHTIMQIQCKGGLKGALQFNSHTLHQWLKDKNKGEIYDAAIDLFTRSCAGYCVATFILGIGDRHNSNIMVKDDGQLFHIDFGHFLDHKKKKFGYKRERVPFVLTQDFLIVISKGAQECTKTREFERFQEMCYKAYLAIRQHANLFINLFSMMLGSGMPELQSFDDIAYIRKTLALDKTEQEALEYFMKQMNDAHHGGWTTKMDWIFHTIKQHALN

[15] = target: Bone morphogenetic protein receptor type-1A (Homo sapiens) (UniProt P36894); experiment: Inhibition of wild-type human partial length BMPR1A (Q214 to I532 residues) expressed in bacterial expression system at 1 uM by Kinomescan method relative to control
[16] = target: Macrophage-stimulating protein receptor (Homo sapiens) (UniProt Q04912); experiment: Inhibition of wild-type human partial length MST1R (I1057 to L1363 residues) expressed in bacterial expression system at 10 uM by Kinomescan method relative to control
[17] = target: Serine/threonine-protein kinase Nek7 (Homo sapiens) (UniProt Q8TDX7); experiment: Inhibition of wild-type human full length NEK7 (M1 to S302 residues) expressed in bacterial expression system at 10 uM by Kinomescan method relative to control
[18] = target: Serine/threonine-protein kinase 35 (Homo sapiens) (UniProt Q8TDR2); experiment: Inhibition of wild-type human partial length STK35 (G182 to A534 residues) expressed in bacterial expression system at 10 uM by Kinomescan method relative to control
[19] = target: Serine/threonine-protein kinase PAK 6 (Homo sapiens) (UniProt Q9NQU5); experiment: Inhibition of wild-type human partial length PAK6 (N298 to C681 residues) expressed in bacterial expression system at 10 uM by Kinomescan method relative to control
[20] = target: Ephrin type-A receptor 6 (Homo sapiens) (UniProt Q9UF33); experiment: Inhibition of wild-type human partial length EPHA6 (Y700 to E1046 residues) expressed in bacterial expression system at 10 uM by Kinomescan method relative to control
[21] = target: Cyclin-dependent kinase 2 (Homo sapiens) (UniProt P24941); experiment: Inhibition of wild-type human full length CDK2 (M1 to L298 residues) expressed in bacterial expression system at 10 uM by Kinomescan method relative to control
[22] = system: Serine/threonine-protein kinase B-raf (Homo sapiens), P15056 [V600E]; experiment: Inhibition of human partial length BRAF V600E mutant (S429 to E741 residues) expressed in mammalian expression system at 10 uM by Kinomescan method relative to control
[23] = target: STE20/SPS1-related proline-alanine-rich protein kinase (Homo sapiens) (UniProt Q9UEW8); experiment: Inhibition of wild-type human partial length STK39 (P43 to I357 residues) expressed in mammalian expression system at 10 uM by Kinomescan method relative to control
[24] = target: Protein-tyrosine kinase 6 (Homo sapiens) (UniProt Q13882); experiment: Inhibition of wild-type human partial length BRK (L166 to T451 residues) expressed in bacterial expression system at 10 uM by Kinomescan method relative to control
Protein-tyrosine kinase 6 (Homo sapiens), sequence (Q13882 whole entry, looked up, the tested form may be a part): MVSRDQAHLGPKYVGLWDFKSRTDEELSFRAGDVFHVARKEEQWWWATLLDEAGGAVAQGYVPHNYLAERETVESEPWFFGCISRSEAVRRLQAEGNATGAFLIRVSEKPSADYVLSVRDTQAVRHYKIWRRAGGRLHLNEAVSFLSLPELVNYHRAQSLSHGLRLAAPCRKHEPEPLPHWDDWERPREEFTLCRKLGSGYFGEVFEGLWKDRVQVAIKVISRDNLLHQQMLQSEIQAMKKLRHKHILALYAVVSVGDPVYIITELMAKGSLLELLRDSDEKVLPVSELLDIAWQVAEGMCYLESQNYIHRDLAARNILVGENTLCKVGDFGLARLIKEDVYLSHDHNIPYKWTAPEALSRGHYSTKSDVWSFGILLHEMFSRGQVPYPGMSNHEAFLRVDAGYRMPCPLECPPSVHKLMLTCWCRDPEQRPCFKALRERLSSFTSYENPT

[25] = target: Serine/threonine-protein kinase Nek3 (Homo sapiens) (UniProt P51956); experiment: Inhibition of wild-type human full length NEK3 (M1 to R506 residues) expressed in mammalian expression system at 10 uM by Kinomescan method relative to control
[26] = target: Mitogen-activated protein kinase kinase kinase kinase 2 (Homo sapiens) (UniProt Q12851); experiment: Inhibition of wild-type human partial length MAP4K2 (M1 to G318 residues) expressed in mammalian expression system at 10 uM by Kinomescan method relative to control
[27] = target: Tyrosine-protein kinase Lyn (Homo sapiens) (UniProt P07948); experiment: Inhibition of wild-type human partial length LYN (C219 to Q511 residues) expressed in bacterial expression system at 10 uM by Kinomescan method relative to control
[28] = target: Mitogen-activated protein kinase kinase kinase 1 (Homo sapiens) (UniProt Q13233); experiment: Inhibition of wild-type human partial length MAP3K1 (L1202 to W1512 residues) expressed in mammalian expression system at 10 uM by Kinomescan method relative to control
Mitogen-activated protein kinase kinase kinase 1 (Homo sapiens), sequence (Q13233 whole entry, the tested form may be a part): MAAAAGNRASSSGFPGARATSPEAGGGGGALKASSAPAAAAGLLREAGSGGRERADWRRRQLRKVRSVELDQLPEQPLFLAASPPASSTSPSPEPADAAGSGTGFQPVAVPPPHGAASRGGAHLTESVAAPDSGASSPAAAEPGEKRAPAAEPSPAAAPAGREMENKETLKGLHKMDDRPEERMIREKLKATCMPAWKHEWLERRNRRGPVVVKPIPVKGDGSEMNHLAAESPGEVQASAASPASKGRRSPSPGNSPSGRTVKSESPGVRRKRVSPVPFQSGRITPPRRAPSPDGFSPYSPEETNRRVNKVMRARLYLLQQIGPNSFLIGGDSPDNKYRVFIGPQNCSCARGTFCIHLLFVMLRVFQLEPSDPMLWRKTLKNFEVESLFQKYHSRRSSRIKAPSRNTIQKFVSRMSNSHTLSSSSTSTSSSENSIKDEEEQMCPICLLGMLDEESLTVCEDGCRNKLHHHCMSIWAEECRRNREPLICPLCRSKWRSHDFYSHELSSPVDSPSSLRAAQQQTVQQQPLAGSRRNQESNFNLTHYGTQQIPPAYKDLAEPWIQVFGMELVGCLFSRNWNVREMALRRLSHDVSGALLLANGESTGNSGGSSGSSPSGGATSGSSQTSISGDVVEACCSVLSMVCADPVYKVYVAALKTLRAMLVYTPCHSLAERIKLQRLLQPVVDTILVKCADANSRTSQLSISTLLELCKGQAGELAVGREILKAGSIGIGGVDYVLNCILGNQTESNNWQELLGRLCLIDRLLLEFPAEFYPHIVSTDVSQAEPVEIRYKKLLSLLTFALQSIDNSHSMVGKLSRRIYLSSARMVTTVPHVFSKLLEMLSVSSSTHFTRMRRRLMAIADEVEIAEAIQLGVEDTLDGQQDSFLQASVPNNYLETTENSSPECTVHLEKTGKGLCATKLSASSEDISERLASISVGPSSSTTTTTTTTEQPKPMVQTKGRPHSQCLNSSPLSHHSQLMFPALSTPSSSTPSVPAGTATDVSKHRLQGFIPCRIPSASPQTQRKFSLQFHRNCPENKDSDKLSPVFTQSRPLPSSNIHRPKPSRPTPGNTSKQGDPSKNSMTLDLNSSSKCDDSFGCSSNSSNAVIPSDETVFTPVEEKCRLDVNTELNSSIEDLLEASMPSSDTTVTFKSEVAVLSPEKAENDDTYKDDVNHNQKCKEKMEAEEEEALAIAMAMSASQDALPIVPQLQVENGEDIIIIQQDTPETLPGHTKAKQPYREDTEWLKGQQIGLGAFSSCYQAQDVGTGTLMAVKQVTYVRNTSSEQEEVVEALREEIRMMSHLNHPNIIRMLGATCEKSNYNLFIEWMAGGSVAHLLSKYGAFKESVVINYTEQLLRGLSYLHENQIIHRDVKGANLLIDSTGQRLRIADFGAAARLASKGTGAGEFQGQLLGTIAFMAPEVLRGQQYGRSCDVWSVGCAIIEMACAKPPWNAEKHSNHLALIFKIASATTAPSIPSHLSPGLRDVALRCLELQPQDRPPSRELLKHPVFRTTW

O=C(Nc1cccc([C@@H]2CN(c3ncnc4[nH]ccc34)CCN2CCO)c1)Nc1c(F)cccc1N1CCCC1
inhibition [1]: 40% | clearance [2]: 6.2 mL/min/kg | Papp A→B at 2 h, 5 µM [3]: 4 ×10⁻⁶ cm/s | inhibition [4]: 100% | inhibition [5]: 79% | inhibition [6]: 100% | inhibition [7]: 80% | inhibition [8]: 81% | solubility kinetic [9]: 8 µg/mL (≈ 14.7 µM) | inhibition [10]: 100% | inhibition [11]: 100% | inhibition [12]: 74% | inhibition [13]: 97% | inhibition [14]: 74% | inhibition [15]: 100%

O=C(Nc1cccc([C@H]2CCCN(c3ncnc4[nH]ccc34)C2)c1)Nc1ccccc1N1CCCC1
inhibition [16]: 100% | inhibition [17]: 72% | inhibition [18]: 99% | inhibition [19]: 85% | inhibition [20]: 51% | inhibition [21]: 67% | inhibition [22]: 16% | inhibition [23]: 75% | inhibition [24]: 100% | inhibition [25]: 59% | inhibition [26]: 61% | inhibition [27]: 66% | inhibition [28]: 39%
